Molecular target: T1, recombinant human NK3 receptor (Homo sapiens, UniProt P29371)
T1 construct: expressed in transfected cells; host or cells: HEK293 cells (transient expression), membranes
T1 sequence (P29371 1-465): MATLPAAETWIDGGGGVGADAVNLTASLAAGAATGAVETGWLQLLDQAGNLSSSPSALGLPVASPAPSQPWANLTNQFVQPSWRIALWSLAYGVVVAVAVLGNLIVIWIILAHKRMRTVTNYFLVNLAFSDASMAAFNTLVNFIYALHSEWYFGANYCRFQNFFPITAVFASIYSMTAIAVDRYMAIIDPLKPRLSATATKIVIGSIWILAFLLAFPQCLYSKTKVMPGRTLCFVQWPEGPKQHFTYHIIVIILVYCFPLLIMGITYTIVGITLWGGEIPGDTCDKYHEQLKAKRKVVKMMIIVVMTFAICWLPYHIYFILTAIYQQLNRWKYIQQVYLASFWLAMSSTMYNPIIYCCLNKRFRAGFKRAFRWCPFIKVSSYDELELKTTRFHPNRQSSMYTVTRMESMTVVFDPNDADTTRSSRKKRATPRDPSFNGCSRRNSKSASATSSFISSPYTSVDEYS
Assay: [3H]SR142801 competition binding assay
Details: hNK3 receptor, membranes from HEK293 cells transiently expressing the receptor, [3H]SR142801 radioligand
Method: [^3H]SR142801 Competition Binding Assay
hNK3 receptor binding experiment were performed using [^3H]SR142801 (Catalog No. TRK1035, specific activity: 74.0 Ci/mmol, Amersham, GE Healthcare UK limited, Buckinghamshire, UK) and membrane isolated from HEK293 cells transiently expressing recombinant human NK3 receptor. After thawing, the membrane homogenates were centrifuged at 48,000×g for 10 min at 4° C., the pellets were resuspended in the 50 mM Tris-HCl, 4 mM MnCl2, 1 μM phosphoramidon, 0.1% BSA binding buffer at pH 7.4 to a final assay concentration of 5 μg protein/well. For inhibition experiments, membranes were incubated with [^3H]SR142801 at a concentration equal to KD value of radioligand and 10 concentrations of the inhibitory compound (0.0003-10 μM) (in a total reaction volume of 500 μl) for 75 min at room temperature (RT). At the end of the incubation, membranes were filtered onto unitfilter (96-well white microplate with bonded GF/C filter preincubated 1 h in 0.3% PEI+0.3% BSA, Packard BioScience, Meriden, Conn.) with a Filtermate 196 harvester (Packard BioScience) and washed 4 times with ice-cold 50 mM Tris-HCl, pH 7.4 buffer. Nonspecific binding was measured in the presence of 10 μM SB222200 for both radioligands. The radioactivity on the filter was counted (5 min) on a Packard Top-count microplate scintillation counter with quenching correction after addition of 45 μl of microscint 40 (Can berra Packard S. A., Zürich, Switzerland) and shaking for 1 h. Inhibition curves were fitted according to the Hill equation: […]), where nH=slope factor using Excel-fit 4 software (Microsoft). IC50 values were derived from the inhibition curve and the affinity constant (Ki) values were calculated using the Cheng-Prussoff equation Ki=IC50/(1+[L]/KD) where [L] is the concentration of radioligand and KD is its dissociation constant at the receptor, derived from the saturation isotherm. All experiments were performed in duplicate and the mean±standard error (SEM) of the individual Ki values was calculated.

Row | Ki [nM] | SMILES
1 | 0.4 | C[C@H](Oc1ccc(Cl)cn1)[C@H]1CN(C(=O)C2CCN(c3ccc(C#N)cn3)CC2)C[C@@H]1c1ccc(Cl)cc1 [Example 1, 4-{(3S,4R)-3-(4-Chloro-phenyl)-4-[1-((S)-5-chloro-pyridin-2-yloxy)-ethyl]-pyrrolidine-1-carbonyl}-3,4,5,6-tetrahydro-2H-[1,2′]bipyridinyl-5′-carbonitrile]
2 | 1.9 | C[C@H](Oc1ccc(Cl)cn1)[C@H]1CN(C(=O)C2CCN(c3cnccn3)CC2)C[C@@H]1c1ccc(Cl)cc1 [Example 2, {(3S,4R)-3-(4-Chloro-phenyl)-4-[1-((S)-5-chloro-pyridin-2-yloxy)-ethyl]-pyrrolidin-1-yl}-(1-pyrazin-2-yl-piperidin-4-yl)-methanone]
3 | 2.1 | C[C@H](Oc1ccc(Cl)cn1)[C@H]1CN(C(=O)C2CCN(c3ncccn3)CC2)C[C@@H]1c1ccc(Cl)cc1 [Example 3, {(3S,4R)-3-(4-Chloro-phenyl)-4-[1-((S)-5-chloro-pyridin-2-yloxy)-ethyl]-pyrrolidin-1-yl}-(1-pyrimidin-2-yl-piperidin-4-yl)-methanone]
4 | 0.8 | C[C@H](Oc1ccc(Cl)cn1)[C@H]1CN(C(=O)C2CCN(c3ccc(C(F)(F)F)cn3)CC2)C[C@@H]1c1ccc(Cl)cc1 [Example 4, {(3S,4R)-3-(4-Chloro-phenyl)-4-[1-((S)-5-chloro-pyridin-2-yloxy)-ethyl]-pyrrolidin-1-yl}-(5′-trifluoromethyl-3,4,5,6-tetrahydro-2H-[1,2′]bipyridinyl-4-yl)-methanone]
5 | 0.4 | CC(=O)c1ccc(N2CCC(C(=O)N3C[C@H]([C@H](C)Oc4ccc(Cl)cn4)[C@@H](c4ccc(Cl)cc4)C3)CC2)cc1 [Example 5, 1-[4-(4-{(3S,4R)-3-(4-Chloro-phenyl)-4-[1-((S)-5-chloro-pyridin-2-yloxy)-ethyl]-pyrrolidine-1-carbonyl}-piperidin-1-yl)-phenyl]-ethanone]
6 | 0.5 | C[C@H](Oc1ccc(Cl)cn1)[C@H]1CN(C(=O)C2CCN(c3ccc(C#N)nn3)CC2)C[C@@H]1c1ccc(Cl)cc1 [Example 6, 6-(4-{(3S,4R)-3-(4-Chloro-phenyl)-4-[1-((S)-5-chloro-pyridin-2-yloxy)-ethyl]-pyrrolidine-1-carbonyl}-piperidin-1-yl)-pyridazine-3-carbonitrile]
7 | 1.2 | C[C@H](Oc1ccc(F)cn1)[C@H]1CN(C(=O)C2CCN(c3ccc(C#N)cn3)CC2)C[C@@H]1c1ccc(Cl)cc1 [Example 7, 4-{(3S,4R)-3-(4-Chloro-phenyl)-4-[1-((S)-5-fluoro-pyridin-2-yloxy)-ethyl]-pyrrolidine-1-carbonyl}-3,4,5,6-tetrahydro-2H-[1,2′]bipyridinyl-5′-carbonitrile]
8 | 1.3 | C[C@H](Oc1ccc(Cl)cn1)[C@H]1CN(C(=O)C2CCN(c3ccncn3)CC2)C[C@@H]1c1ccc(Cl)cc1 [Example 8, {(3S,4R)-3-(4-Chloro-phenyl)-4-[1-((S)-5-chloro-pyridin-2-yloxy)-ethyl]pyrrolidin-1-yl}-(1-pyrimidin-4-yl-piperidin-4-yl)-methanone]
9 | 0.5 | CC(=O)c1ccc(N2CCC(C(=O)N3C[C@H]([C@H](C)Oc4ccc(Cl)cn4)[C@@H](c4ccc(Cl)cc4)C3)CC2)nc1 [Example 9, 1-(4-{(3S,4R)-3-(4-Chloro-phenyl)-4-[1-((S)-5-chloro-pyridin-2-yloxy)-ethyl]-pyrrolidine-1-carbonyl}-3,4,5,6-tetrahydro-2H-[1,2′]bipyridinyl-5′-yl)-ethanone]
10 | 6.1 | C[C@H](Oc1ccc(Cl)cn1)[C@H]1CN(C(=O)C2CCN(c3ncccc3C#N)CC2)C[C@@H]1c1ccc(Cl)cc1 [Example 10, 4-{(3S,4R)-3-(4-Chloro-phenyl)-4-[1-((S)-5-chloro-pyridin-2-yloxy)-ethyl]-pyrrolidine-1-carbonyl}-3,4,5,6-tetrahydro-2H-[1,2′]bipyridinyl-3′-carbonitrile]
11 | 0.5 | C[C@H](Oc1ccc(Cl)cn1)[C@H]1CN(C(=O)C2CCN(c3cc(C#N)ccn3)CC2)C[C@@H]1c1ccc(Cl)cc1 [Example 11, 4-{(3S,4R)-3-(4-Chloro-phenyl)-4-[1-((S)-5-chloro-pyridin-2-yloxy)-ethyl]-pyrrolidine-1-carbonyl}-3,4,5,6-tetrahydro-2H-[1,2′]bipyridinyl-4′-carbonitrile]
12 | 2.1 | Cc1ccc(N2CCC(C(=O)N3C[C@H]([C@H](C)Oc4ccc(F)cn4)[C@@H](c4ccc(Cl)cc4)C3)CC2)nn1 [Example 12, {(3S,4R)-3-(4-Chloro-phenyl)-4-[1-((S)-5-fluoro-pyridin-2-yloxy)-ethyl]-pyrrolidin-1-yl}-[1-(6-methyl-pyridazin-3-yl)-piperidin-4-yl]-methanone]
13 | 0.7 | COc1ccc(N2CCC(C(=O)N3C[C@H]([C@H](C)Oc4ccc(Cl)cn4)[C@@H](c4ccc(Cl)cc4)C3)CC2)nc1 [Example 13, {(3S,4R)-3-(4-Chloro-phenyl)-4-[1-((S)-5-chloro-pyridin-2-yloxy)-ethyl]-pyrrolidin-1-yl}-(5′-methoxy-3,4,5,6-tetrahydro-2H-[1,2′]bipyridinyl-4-yl)-methanone]
14 | 1.2 | COc1ccc(N2CCC(C(=O)N3C[C@H]([C@H](C)Oc4ccc(Cl)cn4)[C@@H](c4ccc(Cl)cc4)C3)CC2)nn1 [Example 14, {(3S,4R)-3-(4-Chloro-phenyl)-4-[1-((S)-5-chloro-pyridin-2-yloxy)-ethyl]-pyrrolidin-1-yl}-[1-(6-methoxy-pyridazin-3-yl)-piperidin-4-yl]-methanone]
15 | 0.5 | COc1ccc(N2CCC(C(=O)N3C[C@H]([C@H](C)Oc4ccc(Cl)cn4)[C@@H](c4ccc(Cl)cc4)C3)CC2)cn1 [Example 15, {(3S,4R)-3-(4-Chloro-phenyl)-4-[1-((S)-5-chloro-pyridin-2-yloxy)-ethyl]-pyrrolidin-1-yl}-(6′-methoxy-3,4,5,6-tetrahydro-2H-[1,3,′]bipyridinyl-4-yl)-methanone]
16 | 0.8 | C[C@H](Oc1ccc(F)cn1)[C@H]1CN(C(=O)C2CCN(c3ccc(C#N)nn3)CC2)C[C@@H]1c1ccc(Cl)cc1 [Example 16, 6-(4-{(3S,4R)-3-(4-Chloro-phenyl)-4-[1-((S)-5-fluoro-pyridin-2-yloxy)-ethyl]-pyrrolidine-1-carbonyl}-piperidin-1-yl)-pyridazine-3-carbonitrile]
17 | 1.5 | C[C@H](Oc1ccc(Cl)cn1)[C@H]1CN(C(=O)C2CCN(c3cccc(C#N)n3)CC2)C[C@@H]1c1ccc(Cl)cc1 [Example 17, 4-{(3S,4R)-3-(4-Chloro-phenyl)-4-[1-((S)-5-chloro-pyridin-2-yloxy)-ethyl]-pyrrolidine-1-carbonyl}-3,4,5,6-tetrahydro-2H-[1,2′]bipyridinyl-6′-carbonitrile]
18 | 3.1 | Cc1nnc(N2CCC(C(=O)N3C[C@H]([C@H](C)Oc4ccc(Cl)cn4)[C@@H](c4ccc(Cl)cc4)C3)CC2)o1 [Example 18, {(3S,4R)-3-(4-Chloro-phenyl)-4-[1-((S)-5-chloro-pyridin-2-yloxy)-ethyl]-pyrrolidin-1-yl}-[1-(5-methyl-[1,3,4]oxadiazol-2-yl)-piperidin-4-yl]-methanone]
19 | 1.2 | C[C@H](Oc1ccc(C#N)cn1)[C@H]1CN(C(=O)C2CCN(c3ccc(C#N)cn3)CC2)C[C@@H]1c1ccc(F)c(F)c1 [Example 19, 4-[(3R,48)-3-[1-((S)-5-Cyano-pyridin-2-yloxy)-ethyl]-4-(3,4-difluoro-phenyl)-pyrrolidine-1-carbonyl]-3,4,5,6-tetrahydro-2H-[1,2′]bipyridinyl-5′-carbonitrile]
20 | 0.9 | C[C@H](Oc1ccc(Cl)cn1)[C@H]1CN(C(=O)C2CCN(c3ccc(C#N)cn3)CC2)C[C@@H]1c1ccc(F)c(F)c1 [Example 20, 4-[(3R,4S)-3-[1-((S)-5-Chloro-pyridin-2-yloxy)-ethyl]-4-(3,4-difluoro-phenyl)-pyrrolidine-1-carbonyl]-3,4,5,6-tetrahydro-2H-[1,2′]bipyridinyl-5′-carbonitrile]

From patent publication US8394834B2, “Pyrrolidines as NK3 receptor antagonists” (Hoffman-La Roche Inc., priority 2009, dated 2013)
